Laboratory results from paper PMC3401907, “Cellular Uptakes, Biostabilities and Anti-miR-210 Activities of Chiral Arginine-PNAs in Leukaemic K562 Cells” (Chembiochem, 2012).

Columns and labels:
[1] = tested on: let-7c, miR-10a, miR-93, miR-99b, miR-126, miR-149, miR-424, miR-494, miR-483-5p and miR-625; test: Content of other microRNAs by RT-PCR (sequence specificity); format: cell-based, human; details: n=3
Method: Figure 5 A), B) Effects of treatment with PNA1, PNA2, PNA3, PNA4, PNA5 and PNA6 molecules on miR-210 contents in cells cultured for 24 h A) in the absence (□), and B) in the presence (▪) of MTH (15 nM). Data are reported as arbitrary units relative to cells treated with pept-1 (□) or with pept-1 and MTH (▪). C) Effects of treatment with PNA4 on miRNA contents in cells cultured for 24 h in the presence of MTH; RT-PCR was performed with a TaqMan MicroRNA Reverse Transcription Kit (Applied Biosystems) for let-7c, miR-10a, miR-93, miR-99b, miR-126, miR-149, miR-424, miR-483-5p and miR-625. Data are reported as arbitrary units relative to untreated cells (average ±SD; n=3).
Real-time quantitative PCR: For microRNA quantification with real-time RT-PCR reagents, the primers and probes were obtained from Applied Biosystems. […] Relative expression was calculated by the comparative cycle threshold method and U6 microRNA was used as reference gene to normalise all RNA samples, because it is constant in the assayed samples by miR-profiling and quantitative RT-PCR analysis as previously reported.[25]

K562 cells = test: Mithramycin-induced erythroid differentiation (benzidine-positive cells); format: cell-based, human; details: MTH 15 nM, PNA 2 μM, benzidine-positive cells after 5 days of induction, three independent experiments
Method: In order to evaluate effects on mithramycin-induced cellular differentiation, K562 cells were treated with MTH in the presence of pept-1, PNA1, PNA2 and PNA4 (each 2 μM). The proportions of benzidine-positive cells were determined after 5 days of induction.
Human cell lines and culture conditions: Human leukaemia K562 cells were cultured under humidified CO2 (5 %)/air in RPMI 1640 medium (Sigma) supplemented with foetal bovine serum (FBS, 10 %, Analitical de Mori, Milan, Italy), penicillin (50 units mL^−1) and streptomycin (50 μg mL^−1).[26] Mithramycin (MTH) was from Sigma. Stock solutions of MTH (100 μM) were stored at −20 °C in the dark and diluted immediately before use. Treatment of K562 cells with MTH was carried out by addition of the appropriate drug concentrations at the beginning of the cultures (cells were seeded at 30 000 mL^−1). The medium was not changed during the induction period. To determine antiproliferative activity, cell growth was studied by determining the cell number per mL with a Z1 Coulter Counter (Coulter Electronics, Hialeah, FL, USA). Erythroid differentiated K562 cells containing haemoglobin were detected by specific reaction with a benzidine/hydrogen peroxide solution as reported elsewhere.[26] The final concentration of benzidine was 0.2 % in glacial acetic acid (5 M) and H2O2 (10 %).

[2] = tested on: DNA1 (full-match antiparallel DNA); test: Melting temperature (Tm) of PNA:DNA duplexes, full-match DNA; format: binding; details: UV absorbance at 260 nm, strand concentration 5 μM
Method: (§1) Measurements of Tm values: The Tm values were determined with a Lambda Bio 20 spectrophotometer and a Peltier PTP6 temperature programmer. Thermal denaturation profiles were measured by monitoring the absorbance at 260 nm from 18 to 90 °C with a heating rate of 1 °C min^−1 and recording every 0.1 °C. […]

γ-globin gene expression = γ-globin gene expression by RT-qPCR; format: cell-based, human; details: mithramycin-treated (15 nM) K562 cells, PNA 2 μM single administration, 72 h, n=3
Method: The strong inhibition of miR-210 by PNA2 and PNA4 might thus result in appreciable reduction of γ-globin gene expression.
Figure 6 A) Effects of pept-1, PNA1, PNA2 and PNA4 molecules (each 2 μM) on γ-globin content in K562 cell cultures for 72 h with MTH (15 nM). Data are reported as arbitrary units relative to cells treated with pept-1 and MTH (average±SD, n=3, *: p<0.05, **: p<0.01). B), C) Effects of treatment (72 h) with pept-1, PNA1, PNA2 and PNA4 molecules on K562 cells induced to erythroid differentiation by MTH (15 nM): B) summary of three independent experiments, C) a representative experiment showing staining of the cells with benzidine.
The nucleotide sequences used for real-time qPCR analysis of γ-globin mRNAs were γ-globin forward primer (5′-TGGCAA GAAGGT GCTGAC TTC-3′), γ-globin reverse primer (5′-TCACTC AGCTGG GCAAAG G-3′) and γ-globin probe (5′-FAM-TGGGAG ATGCCA TAAAGC ACCTGG-TAMRA-3′).[25] The relative expression was calculated by the comparative cycle threshold method with endogenous control human 18S rRNA as reference genes.[25]

[3] = tested on: RNA1 (target region of miR-210); test: Melting temperature (Tm) of PNA:RNA duplexes, full-match RNA; format: binding; details: UV absorbance at 260 nm, strand concentration 5 μM
Method: as §1

H-C5LArgC5LArgG5LArgC5LArgT5LArgG5LArgT5LArgC5LArgACACGCACAG-NH2 [PNA4, 5L Arg (C5) backbone-modified 18-mer PNA, model 2, stretch of consecutive modified monomers]
effect on miR-149 hybridisation signal ([1]; K562 cells 24 h in the presence of MTH, RT-PCR): inhibition of the hybridisation signal | effect on hybridisation availability of other miRs ([1]; K562 cells 24 h with MTH, let-7c, miR-10a, miR-93, miR-99b, miR-126, miR-424, miR-494, miR-483-5p, miR-625): no major effects | effect on MTH-induced erythroid differentiation (K562 cells): able to inhibit erythroid differentiation | Tm, DNA1 in urea (5 M) ([2]; PBS buffer pH 7 (NaCl 100 mM, NaH2PO4 10 mM, EDTA 0.1 mM) with urea 5 M): 77 °C | Tm, DNA1 in water ([2]; PBS buffer pH 7, no urea, 18 to 90 °C at 1 °C/min): >90 °C | effect on γ-globin gene expression (γ-globin gene expression): inhibited γ-globin gene expression | Tm, RNA1 in water ([3]; PBS buffer pH 7, no urea): >90 °C | Tm, RNA1 in urea (5 M) ([3]; PBS buffer pH 7 with urea 5 M): 86 °C
